In publication PMC5504357, “Antifungal Potential of Copper(II), Manganese(II) and Silver(I) 1,10-Phenanthroline Chelates Against Multidrug-Resistant Fungal Species Forming the Candida haemulonii Complex: Impact on the Planktonic and Biofilm Lifestyles” (Frontiers in Microbiology, 2017):
Read-outs that look alike come from different tables or passages of the source.

How the values were obtained:
[1] = system: Candida duobushaemulonii; assay: Planktonic growth, broth microdilution (CLSI M27-A3), MIC; assay type: cell-based; details: for GM-MIC: geometric mean of three C. duobushaemulonii isolates; for MIC: planktonic, 48 h, 37°C
Source text: (§1) Three clinical isolates of each species that form the C. haemulonii complex were used in this study: C. haemulonii (LIPCh4 from finger nail, LIPCh7 from toe nail, and LIPCh12 from blood), C. duobushaemulonii (LIPCh1 from finger nail, LIPCh6 from toe nail, and LIPCh8 from blood) and C. haemulonii var. vulnera (LIPCh5 from toe nail, LIPCh9 from urine, and LIPCh11 from blood) (Ramos et al., [2015]). The fungal isolates were identified by the automatized system VITEK® 2 and then characterized by ITS1-5.8S-ITS2 gene sequencing (Ramos et al., [2015]). Fungal cells were cultured in Sabouraud-dextrose medium under constant agitation (130 rpm) for 48 h at 37°C. Human lung adenocarcinoma A549 cells were maintained in culture flasks containing DMEM medium supplemented with 10% fetal bovine serum at 37°C in an atmosphere of 5% CO2.
(§2) Susceptibility profile assays were performed in accordance with the broth microdilution protocol described in the document M27-A3 published by the Clinical and Laboratory Standards Institutes (CLSI, [2008]). Samples of the test chelates were dissolved in DMSO (500 μL) and then serially diluted in a 96-well plate containing RPMI 1640 (Sigma-Aldrich, USA) to give the concentration range of 0.0625-32 mg/L. Aqueous solutions of the metal-free phen ligand and the simple metal salts, MnCl2, CuCl2, and AgNO3, were also screened over the same concentration range. Caspofungin (Sigma-Aldrich) was used as a classical antifungal agent able to block the growth of all clinical isolates of C. haemulonii species as previously reported by our research group (Ramos et al., [2015]). Water dilutions containing DMSO concentrations corresponding to those used to prepare the drug solutions were assessed in parallel. Untreated and compound-treated fungal cells were incubated at 37°C for 48 h and the minimal inhibitory concentration (MIC) was established as the lowest compound concentration where no cellular growth could be detected by visual inspection in accordance to the CLSI recommendation. The geometric mean of the MIC values (GM-MIC) of each compound against all the fungal isolates was calculated using the software, Microsoft Office Excel 2013.

[2] = system: Candida haemulonii var. vulnera; assay: as above; assay type: cell-based; details: for GM-MIC: geometric mean of three C. haemulonii var. vulnera isolates; for MIC: planktonic, 48 h, 37°C
Source text: as §1, §2

[3] = system: Candida haemulonii; assay: as above; assay type: cell-based; details: for GM-MIC: geometric mean of three C. haemulonii isolates; for MIC: planktonic, 48 h, 37°C
Source text: as §1, §2

[4] = system: C. haemulonii complex; assay: Planktonic growth, overall across all nine isolates; assay type: cell-based, Candida haemulonii complex; details: geometric mean across all nine strains; for MIC: in μM, read-out: Overall GM-MIC
Source text: as §1, §2

[5] = system: A549 cells; assay: Mammalian cell toxicity (MTT assay) and selectivity index; assay type: cell-based, Human
Source text: as §1
The cytotoxicity was evaluated using the MTT [3-(4,5-dimethylthiazol-2-yl)-2,5-diphenyl tetrazolium bromide] (Sigma-Aldrich) assay (Mosmann, [1983]). A549 cells (10^4) were seeded into tissue culture plates (TPP, Switzerland) and cultured for 24 h at 37°C in a 5% CO2 in order to obtain cellular confluence. The wells were then washed twice with DMEM to remove non-adherent cells and the test compounds were added (in concentrations ranging from 0.0313 to 512 μg/mL) to plates containing DMEM, followed by a 48 h incubation period under the same conditions mentioned above. The cellular viability was evaluated by adding MTT to each well and incubating the plates in the dark for 3 h, allowing the viable cells containing active mitochondrial dehydrogenase enzymes to metabolize MTT-tetrazolium salt into purple formazan. The formazan crystals were then dissolved in DMSO (100 μL) and the absorbance (450 nm) measured using a Thermomax Molecular Device microplate reader. The concentration capable of reducing cellular viability by 50% (CC50) was calculated, and the selectivity index (SI) determined using the following equation: A549 CC50/C. haemulonii complex GM-MIC.

[6] = system: Candida duobushaemulonii; assay: Biofilm-growing cells, XTT assay, bMIC; assay type: cell-based; details: for GM-bMIC: geometric mean, C. duobushaemulonii isolates; for bMIC: mature biofilm, 48 h, 50% inhibition of metabolic activity
Procedure: (§3) The effect of the compounds on biofilm-growing cells was determined using the previously described microtiter-based technique (Ramage et al., [2001]). The fungi (10^6 yeast cells) were incubated for 48 h at 37°C in 96-well polystyrene microtiter plates (Corning®, Corning Incorporated, USA) containing Sabouraud-dextrose broth to accommodate biofilm formation. Following biofilm formation, the culture medium was aspirated and non-adherent cells removed by thoroughly washing the wells three times with sterile PBS (0.15 M NaCl, 0.01 M phosphate buffer, pH 7.2). Afterwards, the compounds, at the same concentrations used in the planktonic assays, were added to the wells, and the plates were incubated for further 48 h at 37°C. The metabolic activity was then evaluated using a colorimetric assay that measures the metabolic reduction of 2,3-bis (2-methoxy-4-nitro-5-sulfophenyl)-5-[(phenylamino) carbonyl]-2H-tetrazolium hydroxide (XTT; Sigma-Aldrich) to a water-soluble, brown formazan product (Peeters et al., [2008]). The biofilm MIC (bMIC) for each compound was established as the minimal concentration capable of inhibiting 50% of metabolic activity when compared to compound-free wells (Ziccardi et al., [2015]).

[7] = system: Candida haemulonii var. vulnera; assay: Biofilm-growing cells, XTT assay, bMIC; assay type: cell-based; details: for GM-bMIC: geometric mean, C. haemulonii var. vulnera isolates; for bMIC: mature biofilm, 48 h, 50% inhibition of metabolic activity
Procedure: as §3

[8] = system: Candida haemulonii; assay: Biofilm-growing cells, XTT assay, bMIC; assay type: cell-based; details: for GM-bMIC: geometric mean, C. haemulonii isolates, values marked * do not include LIP Ch4 (>512); for bMIC: mature biofilm, 48 h, 50% inhibition of metabolic activity
Procedure: as §3

[9] = system: Candida haemulonii complex; assay: Biofilm-growing cells, overall across isolates; assay type: cell-based; details: geometric mean across strains, values marked * do not include LIP Ch4 (>512)
Procedure: as §3

Compound | GM-MIC [1] [µg/mL] | MIC ([1]; isolate LIP Ch1) [µg/mL] | MIC ([1]; isolate LIP Ch6) [µg/mL] | MIC ([1]; isolate LIP Ch8) [µg/mL] | GM-MIC [2] [µg/mL] | MIC ([2]; isolate LIP Ch5) [µg/mL] | MIC ([2]; isolate LIP Ch9) [µg/mL] | MIC ([2]; isolate LIP Ch11) [µg/mL] | GM-MIC [3] [µg/mL] | MIC ([3]; isolate LIP Ch4) [µg/mL] | MIC ([3]; isolate LIP Ch7) [µg/mL] | MIC ([3]; isolate LIP Ch12) [µg/mL] | Overall GM-MIC [4] [µg/mL] | MIC [4] [µM] | GM-bMIC [6] [mg/L] | bMIC ([6]; isolate LIP Ch1) [mg/L] | bMIC ([6]; isolate LIP Ch6) [mg/L] | bMIC ([6]; isolate LIP Ch8) [mg/L] | GM-bMIC [7] [mg/L] | bMIC ([7]; isolate LIP Ch5) [mg/L] | other results
O.O.O=C([O-])c1ccccc1C(=O)[O-].[Mn+2].c1cnc2c(c1)ccc1cccnc12 [compound 8, [Mn(ph)(phen)(H2O)2]] | 5.04 | 8 | 4 | 4 | 4 | 4 | 4 | 4 | 5.04 | 8 | 4 | 4 | 4.67 | 10.71 | 10.08 | 16 | 8 | 8 | 16 | 32 | A549 (CC50) [5]: 234.51 µg/mL; bMIC ([7]; isolate LIP Ch9): 16 mg/L; bMIC ([7]; isolate LIP Ch13): 8 mg/L; GM-bMIC [8]: 8^* mg/L; bMIC ([8]; isolate LIP Ch4): >512 mg/L; bMIC ([8]; isolate LIP Ch7): 4 mg/L; bMIC ([8]; isolate LIP Ch14): 16 mg/L; Overall GM-bMIC ([9]; in μM): 25.98 µM; Overall GM-bMIC [9]: 11.31 mg/L
O.O.O.O.O.O=C([O-])c1ccccc1C(=O)[O-].[Mn+2].c1cnc2c(c1)ccc1cccnc12.c1cnc2c(c1)ccc1cccnc12 [compound 9, [Mn(ph)(phen)2(H2O)].4H2O] | 2 | 2 | 2 | 2 | 2 | 2 | 2 | 2 | 2 | 2 | 2 | 2 | 2 | 2.98 | 5.04 | 16 | 4 | 2 | 6.35 | 16 | A549 (CC50) [5]: 259.34 µg/mL; bMIC ([7]; isolate LIP Ch9): 4 mg/L; bMIC ([7]; isolate LIP Ch13): 4 mg/L; GM-bMIC [8]: 25.40 mg/L; bMIC ([8]; isolate LIP Ch4): 512 mg/L; bMIC ([8]; isolate LIP Ch7): 2 mg/L; bMIC ([8]; isolate LIP Ch14): 16 mg/L; Overall GM-bMIC ([9]; in μM): 13.93 µM; Overall GM-bMIC [9]: 9.33 mg/L
O.O.O.O.O=C([O-])c1cccc(C(=O)[O-])c1.O=C([O-])c1cccc(C(=O)[O-])c1.[Mn+2].[Mn+2].c1cnc2c(c1)ccc1cccnc12.c1cnc2c(c1)ccc1cccnc12.c1cnc2c(c1)ccc1cccnc12 [compound 10, [Mn2(isoph)2(phen)3].4H2O] | 6.35 | 8 | 8 | 4 | 4 | 4 | 4 | 4 | 6.35 | 8 | 8 | 4 | 5.44 | 5.15 | 16 | 16 | 16 | 16 | 12.70 | 32 | A549 (CC50) ([5]; MTT, 48 h incubation): 255.87 µg/mL; bMIC ([7]; isolate LIP Ch9): 8 mg/L; bMIC ([7]; isolate LIP Ch13): 8 mg/L; GM-bMIC [8]: 16^* mg/L; bMIC ([8]; isolate LIP Ch4): >512 mg/L; bMIC ([8]; isolate LIP Ch7): 8 mg/L; bMIC ([8]; isolate LIP Ch14): 32 mg/L; Overall GM-bMIC ([9]; in μM): 13.96 µM; Overall GM-bMIC [9]: 14.67 mg/L
